This is an account of results in publication PMC11476342 (Cancers, 2024).

For data set [1] the following is noted: cited from earlier work; for bioavailability: OTX015: oral, in contrast to JQ1; for half-life: in vivo, OTX015 in contrast to JQ1.
Data set [2] deals with J82. As to the kind of experiment: RT-qPCR gene expression. It counts as cell-based, human. The conditions noted are these: 48 h; ENT 0.316 µM; JQ1 1 µM; ENT + JQ1 0.316 + 1 µM. In general terms: Real-time PCR tracks product formation cycle by cycle.
Description: (§2) RNA was isolated using the RNeasy Mini Kit (Qiagen, Hilden, Germany). Subsequently, the RNA was transcribed into cDNA using the High-Capacity cDNA Reverse Transcription Kit (Thermo Scientific, Wesel, Germany). For an RT-PCR, GoTaq qPCR Master Mix (Promega, Fitchburg, WI, USA) and a CFX96 Real-Time System (BIO-RAD, Hercules, CA, USA) were used. The relative changes in gene expression were normalized to the control genes GUSB (beta-glucuronidase), TBP (TATA binding protein), and HPRT1 (hypoxanthine–guanine phosphoribosyltransferase) by Vandesompele method [54].
Another data set has as its system T24. In words: MTT cell viability assay. In kind it is cell-based, human. The method, then:
(§1) The cell viability for determination of IC50 values and synergism studies was analyzed by MTT assay as previously described. […] For preincubation experiments, 1600 c/w (cells per well) for J82 and 1200 c/w for J82 cisR were used. After the incubation time, 25 µL MTT (3-(4,5-dimethylthiazol-2-yl)-2,5-diphenyltetrazolium bromide, Serva, Heidelberg, Germany) solution (5 mg/mL in phosphate-buffered saline) was added. The formazan was dissolved in 75 µL DMSO, and the absorption was measured at 540 nm and 690 nm with a microplate reader (ThermoFisher Multiskan, Thermo Scientific, Wesel, Germany).
In general terms: Formazan colour is commonly taken as a measure of viable cells.

Data set [3] relates to J82 cisR. In words: MTT cell viability assay. It counts as cell-based, human. The method, then: as §1
The subject of another data set is T24 LTT. In words: MTT cell viability assay. It counts as cell-based, human. The method, then: as §1
Data set [4] deals with J82. In words: MTT cell viability assay. It counts as cell-based, human. On the procedure:
as §1

For another data set, the system named is HEK293. In words: MTT cell viability assay, non-cancer cell line. It counts as cell-based, human. The conditions noted are these: for reduction of cell viability: entinostat and/or JQ1 in the absence of cisplatin (Figure 15b,c). The method, then: as §1
For another data set, the system named is HBLAK. As to the kind of experiment: MTT cell viability assay, non-cancer cell line. In kind it is cell-based, human. The conditions noted are these: for reduction of cell viability: entinostat and/or JQ1 in the absence of cisplatin (Figure 15a). The method, then: as §1
For data set [5], the system named is J82 cisR. As to the kind of experiment: RT-qPCR gene expression. The conditions noted are these: 48 h; ENT 0.316 µM; JQ1 0.1 µM; ENT + JQ1 0.316 + 0.1 µM. It counts as cell-based, human.
Description: as §2
On the set-up of data set [6]: method as in PMID 33723398, PMID 29733771, PMID 27063977, PMID 27063978, PMID 26341814. The conditions noted are these: patients; cited from earlier work.
The mark [7] stands for this setting: Homo sapiens, T-24, MTT, 72 h, compound alone, read-out: IC50 ± SD.
Setting [8] is: 48 h preincubation with the other inhibitor (ENT after 0.1 µM JQ1; JQ1 after 0.316 µM ENT), then another 72 h.
[9] abbreviates: 72 h co-incubation with the other epigenetic inhibitor: ENT with 0.1 µM JQ1, JQ1 with 0.316 µM ENT.
Setting [10] is: Homo sapiens, 72 h, MTT, 72 h, compound alone, read-out: IC50 ± SD.
Where [11] appears, read: Homo sapiens, control of the 48 h preincubation scheme, compound 72 h, read-out: IC50 ± SD.
Where [12] appears, read: MTT, 72 h, compound alone, read-out: IC50 ± SD.
Setting [13] is: Homo sapiens, MTT, 72 h, compound alone, read-out: IC50 ± SD.
The mark [14] stands for this setting: 48 h preincubation with the other inhibitor (ENT after 1 µM JQ1; JQ1 after 0.316 µM ENT), then another 72 h.
Setting [15] is: 72 h co-incubation with the other epigenetic inhibitor: ENT with 1 µM JQ1, JQ1 with 0.316 µM ENT.
[16] abbreviates: Homo sapiens, J82, 72 h, MTT, 72 h, compound alone, read-out: IC50 ± SD.
Where [17] appears, read: Homo sapiens, J82, control of the 48 h preincubation scheme, compound 72 h, read-out: IC50 ± SD.
[18] abbreviates: Homo sapiens, HEK293, MTT, 72 h, compound alone, read-out: IC50 ± SD.
Where [19] appears, read: 72 h co-incubation with 0.316 µM ENT.
Where [20] appears, read: MTT, 72 h, compound alone, listed as cisplatin, read-out: IC50 ± SD.
Where [21] appears, read: read-out: Cisplatin IC50 ± SD, control: untreated 48 h, then cisplatin 72 h.
The mark [22] stands for this setting: read-out: Cisplatin IC50 ± SD, control: untreated 48 h, then cisplatin 72 h, listed as cisplatin.
[23] abbreviates: read-out: Cisplatin IC50 ± SD, control, then cisplatin 72 h.

Molecules are shown by their SMILES. Several values for one entry are separate records, joined by “and”; a condition that tells them apart may be missing. Equal values may be shown once. Read-outs that look alike come from different tables or passages of the source.

Usually IC50 stands for the point on the concentration scale where inhibition reaches its midpoint.

For the compound `Cc1sc2c(c1C)C(c1ccc(Cl)cc1)=NC(CC(=O)OC(C)(C)C)c1nnc(C)n1-2` (centres unmarked) [JQ1], the bioavailability entry in data set [1] was “limited”. Moreover, the half-life entry in data set [1] is “very short”. In addition, the “Bim gene expression, decadic logarithm of normalized expression” value came out at 0.283 in the data set with J82 [2] and 0.534 in the data set with J82 cisR [5]. The results for the “FOXO1 gene expression, decadic logarithm of normalized expression” value in the data set on J82 [2] and with J82 cisR [5] were 0.260 and 0.410, respectively. Moreover, the “FOXO3a gene expression, decadic logarithm of normalized expression” value amounted to 0.128 in the data set on J82 [2] and 0.438 with J82 cisR [5]. Besides, the figures for the “p21 gene expression, decadic logarithm of normalized expression” value in the data set on J82 [2] and with J82 cisR [5] were 0.654 and 0.581, respectively. The “p53 gene expression, decadic logarithm of normalized expression” value in the data set on J82 [2] is on record as -0.097; in the data set on J82 cisR [5] it was 0.347. Also, the “survivin gene expression, decadic logarithm of normalized expression” value with J82 [2] is recorded as -0.002; in the data set with J82 cisR [5] it was 0.435. In addition, the IC50 in the data set on T24 (setting [7]) is 2.29 ± 0.42 µM; in the data set with J82 cisR [3] (setting [10]) it was 2.64 ± 0.52 µM; with J82 cisR [3] (setting [11]), 2.41 ± 0.51 µM; in the data set on J82 cisR [3] (setting [12]), 2.22 ± 0.41 µM; in the data set on T24 LTT (setting [13]), 0.6 ± 0.08 µM; with J82 [4] (setting [16]) it was 21.5 ± 4.05 µM. For the same compound, the IC50 in the data set on J82 [4] (setting [17]) was 21.6 ± 4.99 µM; with J82 [4] (setting [12]), 18.8 ± 1.55 µM; in the data set with HEK293 (setting [18]) it was 1.41 ± 0.26 µM; in the data set on HBLAK (Homo sapiens, 72 h, read-out: IC50 ± SD) it was 2370 ± 410 nM. In addition, the SF is listed as 1.21 in the data set on J82 cisR [3] (setting [8]), 1.71 in the data set on J82 cisR [3] (setting [9]), 1.28 with J82 [4] (setting [14]) and 0.84 with J82 [4] (setting [15]). In addition, the “fold lower sensitivity of J82 than J82 cisR” value with J82 cisR [3] (MTT, 72 h) was found to be 8.4 fold. Further, in the data set on T24 LTT (MTT, 72 h), the “fold lower IC50 in T24 LTT than T24” value was found to be 4 fold. Moreover, the “reduction of cell viability” value in the data set on HEK293 is “up to 20%”; with HBLAK it was 60–65%.
As to `Cc1sc2c(c1C)C(c1ccc(Cl)cc1)=N[C@@H](CC(=O)Nc1ccc(O)cc1)c1nnc(C)n1-2` [OTX015], in [1], the bioavailability result is given as “better”. In addition, the half-life entry in [1] is given as “extended”. Further, the IC50 in the data set with J82 cisR [3] (setting [10]) was 1.04 ± 0.13 µM; with J82 [4] (setting [16]) it was 18.9 ± 2.82 µM; in the data set with HEK293 (setting [18]), 1.98 ± 0.42 µM. In [6], the dose-limiting toxicities entry is “anemia, thrombocytopenia, fatigue, and hyperbilirubinemia”.
In the case of `N.N.[Cl][Pt][Cl]` [Cisplatin, cisplatin], the SF in the data set on T24 (72 h co-incubation with 0.3 µM JQ1) is 1.88; in the data set with T24 (setting [19]), 1.02; in the data set with T24 (72 h co-incubation with 0.316 µM ENT + 0.3 µM JQ1) it was 1.54; in the data set with J82 cisR [3] (72 h co-incubation with 0.1 µM JQ1) it was 0.98; in the data set on J82 cisR [3] (setting [19]) it was 1.60; in the data set on J82 cisR [3] (72 h co-incubation with 0.316 µM ENT + 0.1 µM JQ1), 1.56. The SF in the data set with T24 LTT (setting [19]) was found to be 1.71; in the data set on T24 LTT (72 h co-incubation with 0.316 µM ENT + 0.075 µM JQ1), 1.55; in the data set with J82 [4] (setting [19]), 1.74; with J82 [4] (72 h co-incubation with 0.316 µM ENT + 1 µM JQ1), 3.05; in the data set with J82 [4] (72 h co-incubation with 1 µM JQ1), 1.90. Besides, the IC50 was found to be 1.97 ± 0.06 µM with T24 (setting [20]); 2.99 ± 0.12 µM with T24 (setting [12]); 4.15 ± 0.12 µM in the data set on T24 (setting [21]); 3.23 ± 0.1 µM with T24 (setting [22]); 6.17 ± 0.23 µM in the data set with J82 cisR [3] (setting [20]); 7.16 ± 0.24 µM in the data set with J82 cisR [3] (setting [12]). The IC50 in the data set on J82 cisR [3] (setting [21]) was 8.49 µM and 7.8 µM; in the data set on J82 cisR [3] (setting [22]), 7.64 ± 0.38 µM; with T24 LTT (setting [20]), 65.3 ± 4.17 µM; with T24 LTT (setting [12]), 72.2 ± 3.57 µM; in the data set on T24 LTT (setting [21]), 75 ± 2.85 µM; in the data set with T24 LTT (setting [22]), 58.7 ± 2.6 µM. Also, the IC50 is 2.49 ± 0.12 µM with J82 [4] (setting [20]); 1.87 ± 0.06 µM in the data set with J82 [4] (setting [12]); 2.16 µM and 3.02 µM in the data set on J82 [4] (setting [21]); 2.98 ± 0.21 µM in the data set on J82 [4] (setting [22]); 3.36 ± 0.09 µM in the data set with HEK293 (setting [12]); 6.26 ± 0.21 µM in the data set with HEK293 (setting [23]). The IC50 was 1710 ± 90 nM with HBLAK (setting [12]) and 3380 ± 180 nM in the data set with HBLAK (setting [23]). Besides, the cisplatin-resistance factor came out at 3.8 in the data set with J82 cisR [3] (J82 cisR vs J82) and 24 in the data set with T24 LTT (T24 LTT vs T24).
`Cc1sc2c(c1C)C(c1ccc(Cl)cc1)=NC(CC(=O)NCCCN1CCN(C)CC1)c1nnc(C)n1-2` (centres unmarked) [JQ35]: the IC50 in the data set on J82 cisR [3] (setting [10]) came out at 1.49 ± 0.34 µM; in the data set with J82 [4] (setting [16]), 69.5 ± 7.88 µM. Also, the “fold-increased IC50 value compared to JQ1” value in the data set with J82 [4] (J82, MTT, 72 h) amounted to 3.7 fold.
With `Nc1ccccc1NC(=O)c1ccc(CNC(=O)OCc2cccnc2)cc1` [Entinostat, entinostat], the “Bim gene expression, decadic logarithm of normalized expression” value is on record as -0.015 in the data set on J82 [2] and -0.110 with J82 cisR [5]. Besides, the “FOXO1 gene expression, decadic logarithm of normalized expression” value in the data set with J82 [2] is -0.054; with J82 cisR [5], 0.087. The results for the “FOXO3a gene expression, decadic logarithm of normalized expression” value with J82 [2] and with J82 cisR [5] were -0.125 and -0.030, respectively. Besides, the “p53 gene expression, decadic logarithm of normalized expression” value in the data set with J82 [2] was -0.125; with J82 cisR [5], -0.202. The “survivin gene expression, decadic logarithm of normalized expression” value is on record as -0.149 in the data set on J82 [2] and -0.100 with J82 cisR [5]. For the same compound, the IC50 in the data set with T24 (setting [7]) came to 5.68 ± 0.51 µM; in the data set with J82 cisR [3] (setting [10]) it was 10.4 ± 0.94 µM; with J82 cisR [3] (setting [11]) it was 9.38 ± 0.89 µM; with J82 cisR [3] (setting [12]), 7.6 ± 0.59 µM; in the data set on T24 LTT (setting [13]), 1.38 ± 0.1 µM; in the data set with J82 [4] (setting [16]), 12.3 ± 1.08 µM. Also, the IC50 is 9.59 ± 0.81 µM in the data set with J82 [4] (setting [17]), 10.4 ± 0.89 µM with J82 [4] (setting [12]), 4.47 ± 0.77 µM in the data set on HEK293 (setting [18]) and 1450 ± 180 nM in the data set on HBLAK (setting [13]). Moreover, the SF in the data set on J82 cisR [3] (setting [8]) was found to be 1.45; in the data set on J82 cisR [3] (setting [9]), 1.97; with J82 [4] (setting [14]) it was 1.44; in the data set with J82 [4] (setting [15]) it was 1.68. Also, the “reduction of cell viability” value in the data set on HEK293 was “up to 20%”; with HBLAK, 60–65%. The “p21 gene expression, decadic logarithm of normalized expression” value with J82 cisR [5] was 0.049.
